From US11779559B2, “Compositions for treating fungal and bacterial biofilms and methods of using the same” (priority 2017, dated 2023)

How the values were obtained:
Type in all cases: cell-based
[1] = system: bacteria (S. aureus) biofilm and fungal (C. albicans) biofilm; experiment: Sustained inhibition biofilm assay, bacterial and fungal taken together; conditions: sustained inhibition assay; bacterial and fungal biofilm; 1% amino acid (unless specifically noted); p≤0.001
Method: (§1) Two types of biofilm assays were performed: a sustained inhibition assay and a disruption assay. The sustained inhibition assay assesses the compound's ability to prevent biofilm development throughout all stages of biofilm formation, while the disruption assay assesses the compound's ability to break up an existing mature biofilm. These assays are described in detail in the following article: Lohse, M. B., Gulati, M., Valle Arevalo, A., Fishburn, A., Johnson, A. D., and Nobile, C. J. (2017) Assessment and optimizations of Candida albicans in vitro biofilm assays. Antimicrobial Agents and Chemotherapy 61: e02749-16.
(§2) For fungal biofilm assays, all solutions were prepared in RPMI 1640 medium. All bacterial biofilm solutions were prepared in Trypic Soy Broth (TSB), supplemented with 1% glucose (henceforth referred to as TSB-G). All subsequent procedures were performed in a manner that maintained sterility. A solution of each amino acid to be tested was prepared in weight to volume concentrations ranging from 0.1-5.0%. Amino acids were also tested in combinations. Compound solutions were homogenized with gentle agitation in the dark (4° C., 24 hours) before use.
(§3) Fungal strains were streaked on Yeast Peptone Dextrose (YPD) agar plates and incubated at 30° C. for 48 hours. A single colony from each strain to be tested was inoculated into YPD broth and grown for 12 hours, at 30° C., shaking at 225 rpm. For the fungal biofilm inhibition assay, 1 μl of saturated overnight cell culture was added to either 80 μL of RPMI-1640 or RPMI-1640 supplemented with the amino acid compound solution to be tested, in a 384-well plate. […] Media was carefully aspirated and the biofilm was measured by optical density at 600 nm. […] Media was carefully aspirated and the biofilm was measured by optical density at 600 nm. […]
(§4) Bacterial strains were streaked on Blood Agar plates (5% sheep blood in Tryptic Soy Agar) and incubated at 37° C. for 24 hours. […] Media was carefully aspirated and the biofilm was measured by optical density at 600 nm. […]

[2] = system: bacteria (S. aureus) biofilm and fungal (C. albicans) biofilm; experiment: Disruption biofilm assay, bacterial and fungal taken together; conditions: disruption assay; bacterial and fungal biofilm; 1% amino acid (unless specifically noted); p≤0.001
Method: as §1, §2, §3, §4

[3] = system: fungal and bacterial biofilms; experiment: Biofilm assays (sustained inhibition and disruption), fungal and bacterial biofilms; conditions: single component on its own
Method: as §1, §2
All biofilm assays were performed using 384-well non-tissue culture treated polystyrene plates. The fungal species tested are as follows: Candida albicans, Candida guilhermondii, Candida parapsilosis, Candida glabrata, Candida tropicalis, Candida dubliniensis, and Candida auris. The bacterial species tested are as follows: Staphylococcus aureus (standard wild type and methicillin-resistant strain USA300), Escherichia coli, Pseudomonas aeruginosa and Staphylococcus epidermidis.
Fungal strains were streaked on Yeast Peptone Dextrose (YPD) agar plates and incubated at 30° C. for 48 hours. A single colony from each strain to be tested was inoculated into YPD broth and grown for 12 hours, at 30° C., shaking at 225 rpm. For the fungal biofilm inhibition assay, 1 μl of saturated overnight cell culture was added to either 80 μL of RPMI-1640 or RPMI-1640 supplemented with the amino acid compound solution to be tested, in a 384-well plate. The cells were allowed to adhere to the plate for 90 minutes at 37° C. with shaking (350 rpm). Loosely bound cells were washed once with phosphate buffered saline (PBS) and 80 ul of RPMI-1640, or RPMI-1640 supplemented with the amino acid compound solution was added to the plate. The plate was further incubated for 24 hours at 37° C. with shaking (350 rpm). Media was carefully aspirated and the biofilm was measured by optical density at 600 nm. Twelve replicates were performed for each tested condition and the reported values are normalized to the control (RPMI-1640 media only). For the fungal biofilm disruption assays, 80 μL of RPMI-1640 was added to the plate, along with 1 μL of overnight cell culture. The cells were allowed to adhere to the plate for 90 minutes at 37° C. with shaking (350 rpm). Loosely bound cells were washed once with PBS and 80 μL of RPMI-1640 was added to the plate. The plate was further incubated for 24 hours at 37° C. with shaking (350 rpm). Media was carefully aspirated from the mature biofilm and 80 μL of RPMI-1640, or RPMI-1640 supplemented with the amino acid compound solution to be tested, was gently added to the plate. The plate was further incubated for 24 hours at 37° C. with shaking (350 rpm). Media was carefully aspirated and the biofilm was measured by optical density at 600 nm. Twelve replicates were performed for each tested condition and the reported values are normalized to the control (RPMI-1640 media only).
Bacterial strains were streaked on Blood Agar plates (5% sheep blood in Tryptic Soy Agar) and incubated at 37° C. for 24 hours. A single colony from each strain to be tested was inoculated in a TSB broth and grown for 12 hours, at 37° C. with shaking (225 rpm).

## N[C@@H](CC(=O)O)C(=O)O [Aspartic Acid, L-aspartic acid]
[1]
  Reduce Both: ●● (two dots [ie. ••] signifies major effect (greater than about 30% change))
[2]
  Reduce Both: ●● (two dots [ie. ••] signifies major effect (greater than about 30% change))
[3]
  Effect on biofilms: very active against biofilms
